Measurements reported in ChEMBL document CHEMBL4417633, “Inhibitory polypeptides specific to WNT inhibitors” (2017).
Activity calls are given as the source filed them. No cut-off for these calls is given here. Where a SMILES comes first, the peptide text is derived from it.

Columns and labels:
[1] = target: T1, Dickkopf-related protein 1 (Homo sapiens, UniProt O94907); test: Inhibition of human DKK1 in MC3T3E1/TetON-Wnt1/STF-Luc#5 cells assessed as DKK1 neutralizing activity by Wnt1-induced TCF/LEF luciferase reporter gene assay
T1 sequence (O94907 whole entry): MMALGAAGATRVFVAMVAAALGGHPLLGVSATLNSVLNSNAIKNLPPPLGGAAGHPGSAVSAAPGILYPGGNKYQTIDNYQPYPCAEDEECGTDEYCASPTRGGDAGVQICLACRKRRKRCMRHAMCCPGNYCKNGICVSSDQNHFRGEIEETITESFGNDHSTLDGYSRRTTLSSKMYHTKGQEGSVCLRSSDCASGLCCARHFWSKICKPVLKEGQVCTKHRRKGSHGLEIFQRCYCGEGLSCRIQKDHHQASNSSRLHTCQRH

[2] = target: T2, Dickkopf-related protein 1 (Homo sapiens) (UniProt O94907); test: (§1) Inhibition of biotin-labeled human recombinant DKK1 assessed as reduction in DKK1 interaction with LRP-6/Fc incubated overnight by chemiluminescence based Alpha-screen assay
T2 sequence (whole entry): T1 sequence (O94907 whole entry)

[3] = target: T3, Dickkopf WNT-signaling pathway inhibitor 1 (Rattus norvegicus) (UniProt A6I0Z0); test: (§2) Inhibition of biotin-labeled rat recombinant DKK1 assessed as reduction in DKK1 interaction with LRP-6/Fc incubated overnight by chemiluminescence based Alpha-screen assay
T3 sequence (whole entry): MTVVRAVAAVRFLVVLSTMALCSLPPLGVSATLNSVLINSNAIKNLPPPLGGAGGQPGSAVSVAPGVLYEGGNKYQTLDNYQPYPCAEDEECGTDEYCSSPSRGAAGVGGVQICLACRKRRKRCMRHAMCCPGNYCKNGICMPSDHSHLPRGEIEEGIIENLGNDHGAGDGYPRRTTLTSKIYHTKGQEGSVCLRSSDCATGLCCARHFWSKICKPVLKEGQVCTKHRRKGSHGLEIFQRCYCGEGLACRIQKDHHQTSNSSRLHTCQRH

[4] = target: T1, Dickkopf-related protein 1; test: as §1
[5] = target: T4, Dickkopf WNT-signaling pathway inhibitor 1 (Rattus norvegicus, UniProt A6I0Z0); test: as §2
T4 sequence (A6I0Z0 whole entry): T3 sequence (whole entry)

Row | Compound | IC50 [1] | inhibition [2] | inhibition [3] | IC50 [4] | IC50 [5]
1 | CC[C@H](C)[C@H](NC(=O)[C@H](CS)NC(=O)[C@H](CC(=O)O)NC(=O)[C@@H]1CCCN1C(=O)[C@H](Cc1ccccc1)NC(=O)CNC(=O)[C@H](CC(=O)O)NC(=O)[C@H](CS)NC(=O)[C@H](CCCNC(=N)N)NC(=O)[C@H](Cc1c[nH]c2ccccc12)NC(=O)[C@H](CCC(=O)O)NC(=O)[C@H](CCSC)NC(=O)[C@@H]1CCCN1C(=O)[C@H](Cc1ccc(O)cc1)NC(=O)[C@H](CS)NC(=O)[C@H](Cc1cnc[nH]1)NC(=O)[C@@H]1CCCN1C(=O)[C@H](Cc1cnc[nH]1)NC(=O)[C@H](CC(N)=O)NC(=O)[C@H](CCCNC(=N)N)NC(=O)[C@H](CS)NC(=O)[C@H](CCCCN)NC(=O)[C@H](Cc1ccccc1)NC(=O)[C@H](Cc1ccc(O)cc1)NC(=O)[C@H](CO)NC(=O)[C@H](C)NC(=O)[C@@H]1CCCN1C(=O)[C@@H](N)CS)C(=O)N[C@@H](CC(=O)O)C(=O)NCC(=O)N[C@@H](CO)C(=O)N[C@@H](CC(=O)O)C(=O)N[C@@H](CCC(=O)O)C(=O)N[C@H](C(=O)N[C@@H](C)C(=O)N[C@@H](CS)C(=O)NCC(=O)NCC(=O)NCC(=O)NCC(=O)O)[C@H](C)O | 0.8 to 3 nM | Active | Active |  | 
2 | CSCC[C@H](NC(=O)[C@@H]1CCCN1C(=O)[C@H](Cc1cnc[nH]1)NC(=O)[C@H](CS)NC(=O)[C@@H]1CCCN1C(=O)[C@@H]1CCCN1C(=O)[C@H](CC(=O)O)NC(=O)[C@H](CC(N)=O)NC(=O)[C@H](CCCNC(=N)N)NC(=O)[C@H](CS)NC(=O)[C@H](CCC(N)=O)NC(=O)[C@H](Cc1ccccc1)NC(=O)[C@H](Cc1ccc(O)cc1)NC(=O)[C@@H]1CCCN1C(=O)[C@H](C)NC(=O)[C@@H]1CCCN1C(=O)[C@@H](N)CS)C(=O)N[C@@H](CC(=O)O)C(=O)N[C@@H](Cc1c[nH]c2ccccc12)C(=O)N[C@@H](CCCNC(=N)N)C(=O)N[C@@H](CS)C(=O)N[C@@H](CC(=O)O)C(=O)NCC(=O)N[C@@H](Cc1ccccc1)C(=O)N1CCC[C@H]1C(=O)N[C@@H](CC(=O)O)C(=O)N[C@@H](CS)C(=O)N[C@H](C(=O)N[C@@H](CC(=O)O)C(=O)NCC(=O)N[C@@H](CO)C(=O)N[C@@H](CC(=O)O)C(=O)N[C@@H](CCC(=O)O)C(=O)N[C@@H](CCCCN)C(=O)NCC(=O)N[C@@H](CS)C(=O)NCC(=O)NCC(=O)NCC(=O)NCC(=O)O)C(C)C (H-CPAPYFQCRNDPPCHPMDWRCDGFPDCVDGSDEKGCGGGG-OH) | 0.8 to 3 nM | Active | Active |  | 
3 | CC[C@H](C)[C@H](NC(=O)[C@H](CCCNC(=N)N)NC(=O)[C@H](CS)NC(=O)[C@H](CCC(N)=O)NC(=O)[C@H](Cc1ccccc1)NC(=O)[C@H](Cc1ccc(O)cc1)NC(=O)[C@H](CO)NC(=O)[C@@H](NC(=O)[C@@H]1CCCN1C(=O)[C@@H](N)CS)C(C)C)C(=O)N[C@@H](Cc1ccc(O)cc1)C(=O)N[C@@H](CC(N)=O)C(=O)N[C@@H](Cc1cnc[nH]1)C(=O)N[C@@H](CS)C(=O)N[C@@H](Cc1ccc(O)cc1)C(=O)N1CCC[C@H]1C(=O)N[C@@H](CCSC)C(=O)N[C@@H](CCC(=O)O)C(=O)N[C@@H](Cc1c[nH]c2ccccc12)C(=O)N[C@@H](CCCNC(=N)N)C(=O)N[C@@H](CS)C(=O)N[C@@H](CC(=O)O)C(=O)NCC(=O)N[C@@H](Cc1ccccc1)C(=O)N[C@@H](CCC(=O)O)C(=O)N[C@@H](CC(=O)O)C(=O)N[C@@H](CS)C(=O)N[C@H](C(=O)N[C@@H](CC(=O)O)C(=O)NCC(=O)N[C@@H](CO)C(=O)N[C@@H](CC(=O)O)C(=O)N[C@@H](CCC(=O)O)C(=O)N[C@@H](CCCCN)C(=O)NCC(=O)N[C@@H](CS)C(=O)N1CCC[C@H]1C(=O)N[C@@H](Cc1ccc(O)cc1)C(=O)N[C@@H](CCCNC(=N)N)C(=O)N[C@H](C(=O)O)[C@@H](C)O)C(C)C (H-CPVSYFQCRIYNHCYPMEWRCDGFEDCVDGSDEKGCPYRT-OH) |  |  |  | ≤ 1 nM | ≤ 1 nM
4 | CSCC[C@H](NC(=O)[C@@H]1CCCN1C(=O)[C@H](Cc1ccc(O)cc1)NC(=O)[C@H](CS)NC(=O)[C@H](Cc1cnc[nH]1)NC(=O)[C@H](CC(N)=O)NC(=O)[C@H](Cc1cnc[nH]1)NC(=O)[C@H](Cc1ccc(O)cc1)NC(=O)[C@H](CCCNC(=N)N)NC(=O)[C@H](CS)NC(=O)[C@H](CCC(N)=O)NC(=O)[C@H](Cc1ccccc1)NC(=O)[C@H](Cc1ccc(O)cc1)NC(=O)[C@H](CO)NC(=O)[C@@H](NC(=O)[C@@H]1CCCN1C(=O)[C@@H](N)CS)C(C)C)C(=O)N[C@@H](CCC(=O)O)C(=O)N[C@@H](Cc1c[nH]c2ccccc12)C(=O)N[C@@H](CCCNC(=N)N)C(=O)N[C@@H](CS)C(=O)N[C@@H](CC(=O)O)C(=O)NCC(=O)N[C@@H](Cc1ccccc1)C(=O)N1CCC[C@H]1C(=O)N[C@@H](CC(=O)O)C(=O)N[C@@H](CS)C(=O)N[C@@H](CCC(=O)O)C(=O)N[C@@H](CC(=O)O)C(=O)N[C@@H](C)C(=O)N[C@@H](CO)C(=O)N[C@@H](CC(=O)O)C(=O)N[C@@H](CCC(=O)O)C(=O)N[C@@H](CCC(=O)O)C(=O)NCC(=O)N[C@@H](CS)C(=O)N1CCC[C@H]1C(=O)N[C@@H](Cc1ccc(O)cc1)C(=O)N[C@@H](CCCNC(=N)N)C(=O)N[C@H](C(=O)O)[C@@H](C)O (H-CPVSYFQCRYHNHCYPMEWRCDGFPDCEDASDEEGCPYRT-OH) |  |  |  | ≤ 1 nM | ≤ 1 nM
5 | CSCC[C@H](NC(=O)[C@@H]1CCCN1C(=O)[C@H](Cc1ccc(O)cc1)NC(=O)[C@H](CS)NC(=O)[C@H](Cc1cnc[nH]1)NC(=O)[C@H](CC(N)=O)NC(=O)[C@H](CC(C)C)NC(=O)[C@H](Cc1cnc[nH]1)NC(=O)[C@H](CCCNC(=N)N)NC(=O)[C@H](CS)NC(=O)[C@H](CCCNC(=N)N)NC(=O)[C@H](Cc1ccccc1)NC(=O)[C@H](Cc1ccc(O)cc1)NC(=O)[C@H](CO)NC(=O)[C@@H](NC(=O)[C@@H]1CCCN1C(=O)[C@@H](N)CS)C(C)C)C(=O)N[C@@H](CCC(=O)O)C(=O)N[C@@H](Cc1c[nH]c2ccccc12)C(=O)N[C@@H](CCCNC(=N)N)C(=O)N[C@@H](CS)C(=O)N[C@@H](CC(=O)O)C(=O)NCC(=O)N[C@@H](Cc1ccccc1)C(=O)N[C@@H](CC(C)C)C(=O)N[C@@H](CC(=O)O)C(=O)N[C@@H](CS)C(=O)N[C@H](C(=O)N[C@@H](CC(=O)O)C(=O)NCC(=O)N[C@@H](CO)C(=O)N[C@@H](CC(=O)O)C(=O)N[C@@H](CCC(=O)O)C(=O)N[C@@H](CCC(=O)O)C(=O)NCC(=O)N[C@@H](CS)C(=O)N1CCC[C@H]1C(=O)N[C@@H](Cc1ccc(O)cc1)C(=O)N[C@@H](CCCNC(=N)N)C(=O)N[C@H](C(=O)O)[C@@H](C)O)C(C)C (H-CPVSYFRCRHLNHCYPMEWRCDGFLDCVDGSDEEGCPYRT-OH) |  |  |  | ≤ 1 nM | ≤ 1 nM
